Test results as given in PMC12434521, “Characterization of Next-Generation Inhibitors for the Inward-Rectifier Potassium Channel Kir2.1: Discovery of VU6080824” (ACS Medicinal Chemistry Letters, 2025).
Where two headings read alike, the source gives them in different places.

Experiment: Rat PK PBL cassette (i.v.)
Assay type: in vivo, Sprague-Dawley rat
Details: for Kp at 0.25 h: brain and plasma, read-out: Kp (total brain to plasma ratio); for Kp at 0.25 h / AUC / clearance / half-life / MRT / Vd / Kp (total brain to plasma ratio) / CLp / Elim. t1/2 / Vss: male SD rat, 0.2 mg/kg i.v. cassette; for Kp at 0.25 h / Kp (total brain to plasma ratio): 0.25 time point (15 min post dosing); for AUC / clearance / half-life / MRT / Vd / CLp / Elim. t1/2 / Vss: n = 1; for clearance: read-out: CLp; for half-life: read-out: Elim. t1/2 (converted); for Vd: read-out: Vss
Text: While ML133 has found use as a Kir2.1 tool molecule across many disease models, the in vivo PK of this and related compounds within the dibenzylamine chemotype have not previously been characterized. As a highly efficient method for profiling the PK of a compound set, we therefore examined ML133 (alongside 9 additional next-generation Kir2.1 inhibitors) in our rat PK PBL cassette dosing platform (Table ). − From this experimental setup, administration of a 4-compound bolus dose, plus a standard control, can be used to determine a variety of PK parameters in a high-throughput fashion. Specifically, Sprague–Dawley (SD) rats were given 0.2 mg/kg of each Kir2.1 inhibitor (i.v. dosing, 4 compounds +1 control, total dose 1 mg/kg) with PK measured across set time points up to 24 h. Additionally, a separate cohort of animals was utilized to assess total plasma-brain levels (PBL, ratio reported as Kp) of compound at a 0.25 time point. In this fashion, standard plasma-based PK parameters (elimination t 1/2, […] (MRT), plasma clearance (CLp), and volume of distribution (Vss)) were measured alongside a parallel assessment of total brain exposure.
PK PBL Cassette Experimental Conditions
4 compounds plus one control were formulated as a solution in ethanol, PEG400, and DMSO (1:3:6 v/v, respectively) at a concentration of 1 mg/mL and administered as a single IV dose (1 mL/kg, 0.2 mg/kg per compound, total 1 mg/kg) to male, Sprague Dawley rats (n = 1) via injection into a surgically -implanted jugular vein catheter. Blood samples were collected serially from a surgically implanted carotid artery catheter in each animal over multiple post -administration time points (0.033, 0.117, 0.25, 0.5, 1, 2, 4, 7, and 24 hours) into chilled, K 2EDTA anticoagulant - fortified tubes and immediately placed on wet ice. The blood samples were then centrifuged (1700 rcf, 5 minutes, 4 °C) to ob tain plasma samples, which were stored at -80 °C until analysis […]
For determination of the brain over plasma ratio (K p), the same cassette of compounds plus control were formulated in ethanol, PEG400, and DMSO (1:3:6 v/v, respectively) and administered as a single IV dose (1 mL/kg, 0.2 mg/kg per compound, total 1 mg/kg) to male, Sprague Dawley rats ( n = 1) via injection into a surgically-implanted jugular vein catheter. At 15 min post dosing, blood sample was collected terminally into chilled, K 2EDTA anticoagulant-fortified tube and immediately placed on wet ice. The bloo d sample was then centrifuged (1700 rcf, 5 minutes, 4 °C) to obtain plasma sample. At the same post-administration time point, whole brain sample was obtained by rapid dissection, rinsed with PBS, and immediately frozen in individual tissue collection box (dry ice). All brain and plasma samples were stored at -80 °C until […]
Samples preparation for bioanalysis
Plasma samples from the in-life phase of the study were thawed at ambient temperature (benchtop), and then aliquots (20 µL per sample) were transferred to a 96-shallow-well (V-bottom) plate. Matrix-matched quality control (QC) samples and a standard curve of each analyte (1 mg/mL DMSO stock solution) were prepared in blank rat plasma (K2EDTA-treated) via serial dilution and transferred (20 µL each) to the plate along with multiple blank plasma samples. MeCN (120 µL) containing IS (10 nM carbamazepine) was added to each well of the plate to precipitate protein. The plate was then centrifuged (4000 rcf, 5 minutes, ambient temperature), and resulting supernatants (60 µL each) were transferred to a new 96-shallow-well (V-bottom) plate containing an equal volume (60 µL per well) of water (Milli-Q purified). The plate was then sealed in preparation for LC-MS/MS analysis.
Preparation of brain samples was identical to that of plasma samples except for the following modifications. While thawing, brains were weighed (inside their collection boxes using a universal empty collection box tare weight) and then subjected to mechanical homogenization […]

[1] = Sprague-Dawley, plasma, iv, read-out: AUC
[2] = Sprague-Dawley, plasma, iv, read-out: MRT

Row | Compound | Kp at 0.25 h (Sprague-Dawley, iv) | AUC [1] | clearance (Sprague-Dawley, plasma, iv) | half-life (Sprague-Dawley, plasma, iv) | MRT [2] | Vd (Sprague-Dawley, plasma, iv) | Fold longer t1/2 compared to ML133 (rat i.v. cassette) | Fold lower overall plasma clearance compared to ML133 (rat i.v. cassette) | Kp (total brain to plasma ratio) | AUC | CLp | Elim. t1/2 | MRT | Vss
1 | COc1ccc(CNCc2ccc3c(c2)OC(F)(F)O3)cc1 [Compound 5h] | 2.13 | 110 ng·h/mL | 30.4 mL/min/kg | 79.8 min | 52.2 min | 1.58 L/kg | – | – | – | – | – | – | – | –
2 | COc1ccc(CNCc2cccc(-c3ccccc3)c2)cc1 [Compound 5j] | 4.23 | 105 ng·h/mL | 31.7 mL/min/kg | 70.8 min | 60 min | 1.9 L/kg | – | – | – | – | – | – | – | –
3 | COc1ccc(CNCc2ccc(-c3ccccc3)cc2)cc1 [Compound 5k] | 1.82 | 148 ng·h/mL | 22.6 mL/min/kg | 101 min | 64.8 min | 1.46 L/kg | – | – | – | – | – | – | – | –
4 | COc1ccc(CNCc2ccc(-c3cccc(F)c3)cc2)cc1 [Compound 5p] | 2.27 | 109 ng·h/mL | 30.6 mL/min/kg | 41.4 min | 45.6 min | 1.39 L/kg | – | – | – | – | – | – | – | –
5 | COc1ccc(CNCc2ccc(-c3cccc(OC)c3)cc2)cc1 [Compound 5s, 1-(3′-Methoxy-[1,1’-biphenyl]-4-yl)-N-(4-methoxybenzyl)methanamine] | 1.81 | 189 ng·h/mL | 17.7 mL/min/kg | 93.6 min | 59.4 min | 1.06 L/kg | – | – | – | – | – | – | – | –
6 | COc1ccc(CNCc2ccc(-c3cccc(C#N)c3)cc2)cc1 [Compound 5t] | 1.25 | 165 ng·h/mL | 20.2 mL/min/kg | 99.6 min | 59.4 min | 1.2 L/kg | – | – | – | – | – | – | – | –
7 | [2H]C([2H])([2H])Oc1ccc(CNCc2cccc3ccccc23)cc1 [Compound 7] | 3.3 | 146 ng·h/mL | 22.8 mL/min/kg | 83.4 min | 74.4 min | 1.7 L/kg | ~2 fold | ~1.4 fold | – | – | – | – | – | –
8 | [2H]C([2H])([2H])Oc1ccc(CNCc2ccc(-c3cccc(OC)c3)cc2)cc1 [Compound 9] | – | – | – | – | – | – | – | – | 2.15 | 131 ng·h/mL | 25.4 mL/min/kg | 1.56 h | 61.2 min | 1.55 L/kg
9 | [2H]C([2H])([2H])Oc1cccc(-c2ccc(CNCc3ccc(OC)cc3)cc2)c1 [Compound 11] | – | – | – | – | – | – | – | – | 1.94 | 127 ng·h/mL | 26.2 mL/min/kg | 1.54 h | 48.6 min | 1.27 L/kg
10 | [2H]C([2H])([2H])Oc1ccc(CNCc2ccc(-c3cccc(OC([2H])([2H])[2H])c3)cc2)cc1 [Compound 13] | – | – | – | – | – | – | – | – | 2.06 | 126 ng·h/mL | 26.4 mL/min/kg | 1.59 h | 60 min | 1.58 L/kg
11 | COc1ccc(CNCc2cccc3ccccc23)cc1 [ML133, N-(4-methoxybenzyl)-1-(naphthalen-1-yl)methanamine, reference compound] | 3.36 | 104 ng·h/mL | 31.9 mL/min/kg | 45 min | 46.8 min | 1.5 L/kg | – | – | – | – | – | – | – | –
